Here are results for 43 compounds from PubChem BioAssay (NCI).

Where “and” joins values, the source holds several entries; their conditions need not be identical. Identical values can stand only once.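 The compound was tested at five concentrations on cells cultured in 96-well plates, with a 48-hour exposure period. GI50 = concentration required for 50% inhibition of growth. TGI: concentration producing complete growth inhibition.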 Some results are limits rather than exact numbers.

Holding throughout (experiment): NCI anticancer screen, dose series, 48 h
For assay [1], the system named is MDA-N.
Assay [2] deals with KM20L2 colon.
The subject of assay [3] is DMS 114 small cell lung.
In assay [4] the test system is XF 498 CNS.
The subject of assay [5] is HOP-18 NSCLC.
Assay [6] has as its system DLD-1 colon.
In assay [7] the test system is SNB-78 CNS.
The subject of assay [8] is DMS 273 small cell lung.
In assay [9] the test system is RXF-631 renal.

The compound `CC1(C)COCN1COC1CCCCC1` showed a TGI in assay [1] above 100 µM.

In the case of `O=C1C(Cl)=C(Oc2ccc([N+](=O)[O-])cc2)C(=O)c2c(O)ccc(O)c21`, the TGI in assay [1] was above 31.6 µM.

`N#Cc1ccccc1NC(=O)/C(=N\NC(=O)c1ccncc1)C(c1cnc2ccc([N+](=O)[O-])cc2n1)[N+](=O)[O-]` (stereo not given) displayed a TGI in assay [1] above 100 µM.

The compound `Nc1ccccc1/C=C\c1ccccc1` returned a TGI in assay [1] above 100 µM.

For the compound `S=c1[nH]c(=S)c2sc(=S)n(-c3ccccc3)c2[nH]1`, the TGI in assay [2], in assay [3], in assay [4], in [5], in assay [6] and in assay [7] was above 100 µM throughout. Besides, the TGI in assay [8] is above 100 µM.

Consider `CN(NC(=O)CC(=O)NN(C)C(=S)c1ccccc1)C(=S)c1ccccc1`, for which the TGI in [1] is above 100 µM.

Take `c1nc2cscc2c2cscc12`: the TGI in [3], in assay [4], in assay [7] and in assay [8] was above 100 µM throughout.

On to `CCOc1cc2c(cnc3c4cc(OC)c(OC)cc4ccc23)cc1OC`, for which the TGI in [2], in assay [3], in assay [4] and in assay [6] was above 100 µM in each case.

For `N#CCc1ccc(C(C#N)/C(CCCC(=O)Nc2cccc([N+](=O)[O-])c2)=N\NC(=O)NN)cc1` (stereo not given), the TGI in assay [2], in [3], in [5], in assay [6], in assay [7] and in assay [8] was above 100 µM in each case.

`C=C(Cl)COC(=O)Nc1cccc(Cl)c1` displayed a TGI in assay [1] above 100 µM.

For the compound `NCCCN(CCCN)CCCNCc1c2ccccc2c(CNCCCN(CCCN)CCCN)c2ccccc12`, the TGI was 47.8 µM in [2]; 38.1 µM in [4]; 20.7 µM in assay [5]; 28.8 µM in [6]; 79.9 µM in assay [7]; 43.7 µM in [9]. Further, the TGI in assay [8] turned out to be 17 µM.

In turn, `COc1ccccc1C1=C2C(=O)N(C)C(c3ccccc3OC)=C2C(=O)N1C` returned a TGI in assay [1] above 100 µM.

Consider `O=C1/C(=C/c2ccc(O)c([N+](=O)[O-])c2)CCC/C1=C\c1ccc(O)c([N+](=O)[O-])c1`, for which, in assay [1], the GI50 was 25.9 µM; the TGI was 19.9 µM and > 100 µM.

Consider `O=C(O)c1c2c(c(C(=O)O)c3ccccc13)-c1ccccc1-2`, for which the TGI in assay [2] is above 100 µM; in assay [3] it was above 100 µM; in [4], above 100 µM; in assay [5] it was 83.9 µM; in assay [6] it was above 100 µM; in assay [7] it was above 100 µM. In assay [8], this compound returned a TGI above 100 µM.

Take `CC(=O)OCSc1ncnc2c1ncn2CN1CCOCC1`: the TGI in [2], in [3], in [5], in assay [6], in assay [7] and in [8] was above 100 µM each time.

Take `OCC(O)C(O)C(O)C1SC(c2ccccc2)=NN1c1ccccc1` (stereo not given): the TGI in assay [2] is above 100 µM; in [3] it was above 100 µM; in assay [4], above 78.1 µM; in assay [1], above 100 µM; in assay [5], above 100 µM; in assay [6] it was above 100 µM. Also, the TGI in assay [7] was above 96.4 µM; in assay [9], above 100 µM; in assay [8], above 100 µM.

`O=C(/C=C/C=C/c1ccccc1)CCc1ccccc1` displayed a TGI in [1] above 100 µM.

Consider `CC(C)=CC(=O)Oc1ccc([N+](=O)[O-])cc1`, for which the TGI in assay [2], in [3], in [4], in assay [5], in [6] and in [7] was above 100 µM each time. The same compound registered a TGI in assay [8] above 100 µM.

Turning to `Cc1cccc(C)c1NC(=O)CCCC(=O)CC(=O)/C=C/c1ccccc1`, the TGI in [2], in [3], in [4], in assay [5], in assay [6] and in assay [7] was above 100 µM each time. For the same compound, the TGI in assay [9] and in assay [8] was above 100 µM each time.

Turning to `C1CNCCNCCNCCN1`, the TGI in assay [2], in assay [3], in assay [5], in assay [6], in assay [7] and in [8] was above 100 µM each time.

In turn, `c1ccc(C(=NNc2nc3ccccc3o2)c2ccccn2)nc1` came in with a TGI in assay [1] of 25.9 µM.

Turning to `COc1ccc(C2S/C(=C\c3cc(OC)c(OC)c(OC)c3)C(=O)N2NC(=O)Cc2ccccc2)cc1` (stereo not given), the TGI in assay [3], in [5], in [6] and in assay [8] was above 100 µM in each case.

Take `Cc1ccccc1C(=O)C#Cc1cn(C2CC(O)C(CO)O2)c(=O)[nH]c1=O` (stereo not given): in assay [1], the TGI was above 100 µM.

As for `O=C1C(=Cc2ccco2)C(=O)C2CCCCC12` (stereo not given), in [1], the TGI is above 100 µM.

With `FC(F)(F)c1cccc(COCCN2CCN(Cc3cccc(C(F)(F)F)c3)CC2)c1`, in assay [1], the TGI is 34.4 µM.

`S=c1nc(Oc2ccc(Cl)c(Cl)c2)[nH]c(=S)[nH]1`: the TGI in [2] is above 100 µM; in [3], 48.2 µM; in [4] it was 65.6 µM; in assay [1], above 100 µM; in assay [5] it was above 100 µM; in assay [6] it was 88.4 µM. For the same compound, the TGI in assay [7] was above 100 µM; in assay [9] it was 32.8 µM; in assay [8], 50 µM.

In the case of `CC(=O)NC1=C(Nc2ccc(C)cc2)C(=O)c2ccccc2C1=O`, the TGI in [2] is above 75 µM; in assay [3], 38.4 µM; in [4], 73.1 µM; in assay [5] it was 28.5 µM; in [6], above 75 µM; in assay [7], above 75 µM. In addition, the TGI in assay [8] stood at 61 µM.

Consider `Clc1ccc(-n2nnc(C3=NCCCN3)c2-c2ccccc2)cc1`, for which the TGI in [2], in [3], in assay [4], in assay [5], in assay [6] and in assay [7] was above 100 µM in each case. The TGI in [8] is above 100 µM.

Turning to `COc1cc2c(c(OC)c1OC)-c1ccc(SC)c(=O)cc1[C@@H](NC(=O)c1ccc(OC(C)=O)cc1)CC2`, the TGI in assay [2] was 0.0358 µM; in assay [3] it was 0.0336 µM; in [4] it was 0.0597 µM; in [6] it was 28.8 µM; in assay [9], 18.1 µM; in assay [8], above 100 µM. In addition, in assay [3], the GI50 was 0.0144 µM.

`CN(C)CC(/C(Cc1ccccc1)=N\NC(=O)c1ccncc1)c1ccccc1` (stereo not given): the TGI was 92.3 µM in assay [2]; 81.8 µM in [3]; above 100 µM in assay [4]; above 100 µM in assay [6]; above 100 µM in [9].

For the compound `COc1ccc(/C=C\c2cc(OC)c(OC)c(OC)c2)cc1OC(=O)C(N)CCC(=O)O` (stereo not given), the GI50 in [2] was 1.51 µM; in [1], 0.000204 µM. Also, the TGI is 9.55 µM in assay [2], 0.0491 µM in [4], above 100 µM in assay [6] and 46.4 µM in assay [7].

In assay [1], `c1cc2c(cc1C(N1CCNCC1)N1CCNCC1)OCO2` returned a TGI above 100 µM.

As for `Cc1cc(O)c(C(=O)CC2(O)C(=O)Nc3c(Cl)cc(Cl)cc32)c(=O)o1` (stereo not given), the TGI in assay [2], in assay [4], in assay [5], in assay [6], in assay [7] and in assay [9] was above 100 µM throughout. Further, in [8], the TGI was above 100 µM.

Consider `CC(=O)OCC1OC(OC2CC3C(C)(C)C(OC(C)=O)CC[C@]3(C)C3CCC45CC4(CC[C@H]5C(C)CC(O)[C@@H](O)C(C)(C)O)[C@]23C)C(O)C(O)C1O` (stereo not given in full), for which the TGI in assay [2] is 14.4 µM and 21.6 µM; in assay [4], 33.9 µM; in assay [5], 15 µM and 17.3 µM; in assay [6], 13.7 µM and 23.2 µM; in assay [8], 13.8 µM and 20.3 µM. Further, the figures for the GI50 in [5] and in assay [6] were 5.43 µM and 10.4 µM, respectively.

Consider `Cn1nc(-c2ccccc2)c(N=[N+]=[N-])cc1=O`, for which the TGI in [2], in assay [3], in assay [4] and in assay [8] was above 100 µM in each case.

As to `COC1/C(=C\C(=O)OC(C)(C)C)c2ccccc2N1C(C)=O` (stereo not given), the TGI in [2], in assay [3], in [4], in [5], in [6] and in assay [7] was above 100 µM each time. The TGI in [9] and in assay [8] was above 100 µM throughout.

As for `[N-]=[N+]=C(C(=O)OCC#CCOC(=O)C(=[N+]=[N-])S(=O)(=O)c1ccccc1)S(=O)(=O)c1ccccc1`, in assay [1], the TGI was above 10 µM.

On to `O=C(CNC(=O)OCc1ccccc1)Oc1ccccc1`, for which the TGI in assay [2], in assay [3], in [4], in assay [5], in [6] and in assay [7] was above 100 µM in each case. For the same compound, the TGI in [8] is above 100 µM.

As for `COc1ccc(C(=O)C(c2ccc(OC)cc2)C2(O)C(=O)Nc3c(C)cc(Cl)cc32)cc1` (stereo not given), the TGI in assay [2], in [6], in assay [7], in assay [9] and in assay [8] was above 100 µM throughout.

For `CC1(CO)OC1COCc1ccccc1` (stereo not given), the TGI in [2], in assay [3], in assay [4], in [6], in [7] and in assay [9] was above 100 µM in each case. Also, in assay [8], the TGI was above 100 µM.

`CN(C)CCCN=C(N)N` yielded a TGI in [1] above 100 µM.

`C[C@]12CC[C@H](O)CC1=CC[C@@H]1C2CC[C@]2(C)c3nn(-c4ccc(F)cc4)nc3CC12` (stereo not given in full): the TGI in assay [1] was above 100 µM.

In the case of `COC(=O)/C=C(C)/C=C/c1cc(C(C)=O)c(C)o1`, the TGI in assay [2], in assay [3], in assay [4], in assay [5], in assay [6] and in assay [7] was above 100 µM throughout.
